Results: patent US20190119284A1, “ErbB Inhibitors and Uses Thereof” (The Regents of the University of California, priority 2016, published 2019)
Like-named read-outs stand apart in the source and are kept apart here.

Key:
[1] = Mouse Liver Microsome stability assay; type: in vitro ADME; conditions: mouse liver microsomes
[2] = test system: parental Ba/F3 cells + IL-3; assay: Ba/F3 proliferation assay, Parental + IL-3; type: cell-based; conditions: Tables 7 and 8, read-out: Ba/F3 line IC50, Parental + IL-3
Procedure: (§1) To validate the screen and test the effectiveness of counter-screening with either the same 2YF/3wt Ba/F3 cell line or the parental Ba/F3's in the presence of IL-3 to remove cytotoxic primary hits, we first tested a panel of kinase inhibitors with established mechanisms of action.
(§2) Proliferation Assays. For adherent cell lines, cells were plated onto opaque white 96 well plates (Greiner cat #655083) and allowed to adhere overnight. The following day media was changed to fresh media that contained either DMSO or the indicated concentration of drug plus NRG (50 ng/mL final concentration) as indicated. Plates were incubated at 37° C. for 72 h and proliferation was read out using Cell Titer Glo (Promega) according to the manufacturer's protocol. For Ba/F3 cell proliferation, cells, drug dilution, and any necessary growth factors (10 ng/mL IL-3 or 6.25 ng/mL NRG) were combined in a well of a 96 well plate. Plates were incubated at 37° C. for 48 h and proliferation was read out using Cell Titer Glo according to the manufacturer's protocol. For all normalized assays, proliferation was normalized to the DMSO control condition. All graphs were plotted in GraphPad Prism 6 and fit with a non-linear regression of the log(inhibitor) vs response with a variable slope where shown. All graphs are averages (+/−standard deviation) of biological triplicates each performed in technical triplicate unless otherwise noted. If only one biological replicate was performed standard deviations were derived from the technical replicates.

HER2+/2VE Ba/F3 line = assay: Ba/F3 proliferation assay, HER2+/2VE; type: cell-based; conditions: Tables 7 and 8
Procedure: as §2

[3] = target: 2YF/3wt + NRG Ba/F3 cells (HER2YF/HER3wt) (Homo sapiens, UniProt P04626, Y1005F/Y1023F/Y1112F/Y1127F/Y1139F/Y1196F/Y1221F/Y1222F/Y1248F, cells depend on it); assay: Ba/F3 proliferation assay, 2YF/3wt + NRG; type: cell-based; conditions: Tables 7 and 8; read-out: Ba/F3 line IC50, HER2YF/HER3 + NRG
2YF/3wt + NRG Ba/F3 cells (HER2YF/HER3wt), sequence (P04626 whole entry Y1005F/Y1023F/Y1112F/Y1127F/Y1139F/Y1196F/Y1221F/Y1222F/Y1248F): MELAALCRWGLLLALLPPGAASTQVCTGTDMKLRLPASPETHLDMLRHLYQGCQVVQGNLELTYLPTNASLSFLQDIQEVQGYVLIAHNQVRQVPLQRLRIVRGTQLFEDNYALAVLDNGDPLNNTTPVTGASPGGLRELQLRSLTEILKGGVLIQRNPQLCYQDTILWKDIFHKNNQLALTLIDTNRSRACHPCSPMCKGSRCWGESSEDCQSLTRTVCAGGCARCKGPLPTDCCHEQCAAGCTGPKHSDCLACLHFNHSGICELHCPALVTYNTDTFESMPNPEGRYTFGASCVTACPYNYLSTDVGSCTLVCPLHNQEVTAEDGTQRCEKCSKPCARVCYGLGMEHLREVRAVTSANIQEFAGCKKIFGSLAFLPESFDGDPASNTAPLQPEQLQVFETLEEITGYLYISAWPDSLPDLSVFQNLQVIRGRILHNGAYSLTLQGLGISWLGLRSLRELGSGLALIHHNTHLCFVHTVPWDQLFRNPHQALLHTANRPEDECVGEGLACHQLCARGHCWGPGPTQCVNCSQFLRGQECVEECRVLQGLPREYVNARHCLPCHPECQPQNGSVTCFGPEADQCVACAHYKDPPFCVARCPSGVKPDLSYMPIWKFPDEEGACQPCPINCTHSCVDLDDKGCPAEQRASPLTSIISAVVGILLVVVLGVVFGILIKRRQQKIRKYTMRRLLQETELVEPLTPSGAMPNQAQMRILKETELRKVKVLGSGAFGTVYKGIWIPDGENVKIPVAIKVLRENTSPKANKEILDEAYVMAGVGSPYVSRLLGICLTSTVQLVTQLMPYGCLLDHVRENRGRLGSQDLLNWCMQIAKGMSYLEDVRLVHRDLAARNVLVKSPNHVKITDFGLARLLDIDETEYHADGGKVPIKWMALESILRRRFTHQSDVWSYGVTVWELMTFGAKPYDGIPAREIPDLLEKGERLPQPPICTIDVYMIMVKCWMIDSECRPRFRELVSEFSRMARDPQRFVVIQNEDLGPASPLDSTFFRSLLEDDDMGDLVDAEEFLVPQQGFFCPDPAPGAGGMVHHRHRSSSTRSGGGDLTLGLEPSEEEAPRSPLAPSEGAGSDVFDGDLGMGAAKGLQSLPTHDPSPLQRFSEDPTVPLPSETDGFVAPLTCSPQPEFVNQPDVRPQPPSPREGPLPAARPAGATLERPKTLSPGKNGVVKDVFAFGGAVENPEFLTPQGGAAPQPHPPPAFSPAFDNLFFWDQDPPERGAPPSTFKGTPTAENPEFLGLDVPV
Excerpt: Ba/F3 cells are normally dependent on IL-3 signaling for their proliferation and survival, but can be made dependent on introduced oncogenic signals. We sequentially selected transduced Ba/F3 cells for populations stably expressing HER3 and then HER2. To ensure that all of the proliferative signal could be attributed to HER2/HER3 heterodimers, rather than HER2 homodimers, the 9 C-terminal tyrosines in HER2 were mutated to phenylalanine (HER2YF). We then withdrew IL-3 and supplemented the media with NRG to select for NRG dependent HER2YF/HER3wt cells (2YF/3wt).
For the 2YF/3wt cells, the parental cells were first transduced with HER3 according to the protocol above and were then spun down at 500×g for 5 min and re-suspended in media supplemented with 10 ng/mL IL-3 and 3 μg/mL puromycin (Invitrogen). Cells were maintained in these conditions for seven days, passaging as required. After seven days the cells were spun down, washed with fresh media, and then used for a subsequent round of transduction according to the protocol above with HER2YF virus. […] The cells were maintained in these conditions for seven days, passaging as required. After seven days the cells were spun down, washed with fresh media, and then suspended in media supplemented with 10 ng/mL of NRG. Cells were maintained in these conditions for seven days to select for a NRG dependent population of 2YF/3wt Ba/F3 cells that were then maintained as described above. The same protocol was used for the 2YF-L755S/3wt, 2YF-YVMA/3wt, and 2YF-VC/3wt cell lines using the indicated constructs.
Proliferation Assays. […] The following day media was changed to fresh media that contained either DMSO or the indicated concentration of drug plus NRG (50 ng/mL final concentration) as indicated. […] For all normalized assays, proliferation was normalized to the DMSO control condition. All graphs were plotted in GraphPad Prism 6 and fit with a non-linear regression of the log(inhibitor) vs response with a variable slope where shown. All graphs are averages (+/−standard deviation) of biological triplicates each performed in technical triplicate unless otherwise noted. If only one biological replicate was performed standard deviations were derived from the technical replicates.

Axl+ Ba/F3 cells = target: T1, Axl+ Ba/F3 cells (Homo sapiens, UniProt P30530); assay: Ba/F3 proliferation assay, Axl+; type: cell-based; conditions: Tables 7 and 8; read-out: Ba/F3 line IC50, Axl+
T1 sequence (P30530 1-894): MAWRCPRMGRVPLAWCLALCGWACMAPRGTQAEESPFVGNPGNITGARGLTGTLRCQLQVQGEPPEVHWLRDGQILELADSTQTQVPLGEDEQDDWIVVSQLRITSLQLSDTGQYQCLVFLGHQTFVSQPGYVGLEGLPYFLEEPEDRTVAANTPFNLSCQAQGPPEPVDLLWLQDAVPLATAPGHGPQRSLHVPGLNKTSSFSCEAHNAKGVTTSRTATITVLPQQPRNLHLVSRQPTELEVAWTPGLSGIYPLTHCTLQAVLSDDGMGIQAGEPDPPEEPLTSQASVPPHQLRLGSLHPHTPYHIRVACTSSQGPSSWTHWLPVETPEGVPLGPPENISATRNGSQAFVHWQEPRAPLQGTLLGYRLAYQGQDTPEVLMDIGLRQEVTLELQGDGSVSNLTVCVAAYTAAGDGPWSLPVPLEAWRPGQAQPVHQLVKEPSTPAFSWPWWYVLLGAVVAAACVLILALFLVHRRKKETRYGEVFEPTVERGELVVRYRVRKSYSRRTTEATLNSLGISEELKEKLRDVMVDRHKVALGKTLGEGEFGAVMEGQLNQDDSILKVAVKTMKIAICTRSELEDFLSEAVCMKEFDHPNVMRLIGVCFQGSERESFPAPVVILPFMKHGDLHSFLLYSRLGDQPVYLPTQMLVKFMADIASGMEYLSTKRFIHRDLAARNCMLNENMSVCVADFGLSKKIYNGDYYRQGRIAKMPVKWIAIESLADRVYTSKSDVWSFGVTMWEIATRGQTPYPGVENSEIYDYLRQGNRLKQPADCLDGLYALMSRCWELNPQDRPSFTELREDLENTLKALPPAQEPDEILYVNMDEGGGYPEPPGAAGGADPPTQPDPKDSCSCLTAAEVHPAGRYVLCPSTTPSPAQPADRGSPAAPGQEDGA
Procedure: as §1
For Axl+ cells, the transduced cells were spun down at 500×g for 5 min and resuspended in media supplemented with 10 ng/mL IL-3 and 3 μg/mL puromycin (Invitrogen). Cells were maintained in these conditions for 7 days, passaging as required. After 7 days the cells were spun down, washed with fresh media, and then suspended in IL-3 free media. The cells were maintained in these conditions for 2 weeks to select for an IL-3 independent population of Axl+ driven cells.
as §2

SMILES | WuXi Microsomal stability (Mouse Extraction Ratio) [1] | IC50 ([2]; Mus musculus, BaF3) | IC50 (HER2+/2VE Ba/F3 line; Mus musculus, BaF3) | GI50 [3] | GI50 (Axl+ Ba/F3 cells) | IC50 [2] | IC50 (HER2+/2VE Ba/F3 line)
COc1ccc(-c2ccccc2F)cc1Nc1ncnc2[nH]nc(-c3cc[nH]n3)c12 [8168A] | 0.8 | – | – | – | – | – | –
COc1ccccc1Nc1ncnc2[nH]nc(-c3ccccc3)c12 [Cmpd 187A] | – | > 10000 nM | > 10000 nM | > 10000 nM | > 10000 nM | – | –
COc1ccccc1Nc1ncnc2[nH]nc(-c3cccc(C(C)=O)c3)c12 [Cmpd 187B] | – | > 10000 nM | > 10000 nM | > 10000 nM | > 10000 nM | – | –
c1ccc(-c2ccc(Nc3ncnc4[nH]nc(-c5ccccc5)c34)cc2)cc1 [Cmpd 188A] | – | > 10000 nM | > 10000 nM | > 10000 nM | > 10000 nM | – | –
CC(=O)c1cccc(-c2n[nH]c3ncnc(Nc4ccc(-c5ccccc5)cc4)c23)c1 [Cmpd 188B] | – | > 10000 nM | > 10000 nM | > 10000 nM | > 10000 nM | – | –
COc1ccc(-c2ccccc2)cc1Nc1ncnc2[nH]nc(-c3ccccc3F)c12 [Cmpd 189A] | – | 1120 nM | 613 nM | 361 nM | 362 nM | – | –
COc1ccc(-c2n[nH]c3ncnc(Nc4cc(-c5ccccc5)ccc4OC)c23)cc1 [Cmpd 189B] | – | – | – | > 10000 nM | > 10000 nM | > 10000 nM | > 10000 nM
COc1cccc(-c2n[nH]c3ncnc(Nc4cc(-c5ccccc5)ccc4OC)c23)c1 [Cmpd 190A] | – | 450 nM | 229 nM | 86.8 nM | 171 nM | – | –
COc1ccc(-c2ccccc2)cc1Nc1ncnc2[nH]nc(-c3ccc4ccccc4c3)c12 [Cmpd 190C] | – | 1510 nM | 1840 nM | 862 nM | 643 nM | – | –
COc1ccc(C(C)(C)C)cc1Nc1ncnc2[nH]nc(-c3cccc(C(C)=O)c3)c12 [Cmpd 190D] | – | > 10000 nM | > 10000 nM | > 10000 nM | > 10000 nM | – | –
CC(=O)c1cccc(-c2n[nH]c3ncnc(Nc4cc(-c5ccccc5)ccc4O)c23)c1 [Cmpd 191A] | – | 2910 nM | 769 nM | 150 nM | 506 nM | – | –
COc1ccc(-c2ccccc2)cc1Nc1ncnc2[nH]nc(-c3cccc4ccccc34)c12 [Cmpd 191B] | – | > 1000 nM | > 1000 nM | > 1000 nM | > 1000 nM | – | –
COc1ccc(-c2ccccc2)cc1Nc1ncnc2[nH]nc(-c3ccc(C#N)cc3)c12 [Cmpd 191D] | – | 1740 nM | 1110 nM | 884 nM | 1010 nM | – | –
COc1ccc(-c2ccccc2)cc1Nc1ncnc2[nH]nc(-c3ccc(C(F)(F)F)cc3)c12 [Cmpd 191E] | – | > 10000 nM | > 10000 nM | > 10000 nM | > 10000 nM | – | –
COc1ccc(-c2ccccc2)cc1Nc1ncnc2[nH]nc(-c3ccsc3)c12 [Cmpd 191F] | – | 2510 nM | 1700 nM | 376 nM | 2150 nM | – | –
COc1ccc(-c2ccccc2)cc1Nc1ncnc2[nH]nc(-c3ccc(C(C)=O)cc3)c12 [Cmpd 191H] | – | > 10000 nM | > 10000 nM | > 10000 nM | > 10000 nM | – | –
COc1ccc(-c2ccccc2)cc1Nc1ncnc2[nH]nc(-c3cccc(C(C)=O)c3)c12 [compound 185, 1-(3-(4-((4-methoxy-[1,1′-biphenyl]-3-yl)amino)-1H-pyrazolo[3,4-d]pyrimidin-3-yl)phenyl)ethanone] | – | 1490 nM | 243 nM | 148 nM | 257 nM | – | –
COc1cc(C)c(-c2ccccc2)cc1Nc1ncnc2[nH]nc(-c3cc[nH]n3)c12 [compound 8134] | 0.7 | – | – | – | – | – | –
CN(C)c1ccc(-c2ccccc2)cc1Nc1ncnc2[nH]nc(-c3cc[nH]n3)c12 [compound 8164] | 0.9 | – | – | – | – | – | –
COc1ncc(-c2ccccc2)cc1Nc1ncnc2[nH]nc(-c3cc[nH]n3)c12 [compound 8177] | 0.8 | – | – | – | – | – | –
FC(F)Oc1ccc(-c2ccccc2)cc1Nc1ncnc2[nH]nc(-c3cc[nH]n3)c12 [compound 8179] | 0.6 | – | – | – | – | – | –
COc1ccc(-c2cnccn2)cc1Nc1ncnc2[nH]nc(-c3cc[nH]n3)c12 [compound 8184] | 0.9 | – | – | – | – | – | –
COc1ccc(-c2ncccn2)cc1Nc1ncnc2[nH]nc(-c3cc[nH]n3)c12 [compound 8185] | 0.8 | – | – | – | – | – | –
COc1ccc(-c2ccccc2)cc1Nc1ncnc2[nH]nc(-c3n[nH]cc3C)c12 [compound 8186] | 0.7 | – | – | – | – | – | –
